According to PMC6100603, “Exploring the Dual Inhibitory Activity of Novel Anthranilic Acid Derivatives towards α-Glucosidase and Glycogen Phosphorylase Antidiabetic Targets: Design, In Vitro Enzyme Assay, and Docking Studies” (Molecules : A Journal of Synthetic Chemistry and Natural …, 2018):
Values joined by “and” are separate entries in the source; they are usually repeats but may differ in a detail not shown here. Equal values may be shown once.

How the values were obtained:
[1] = molecular target: α-Glucosidase from Saccharomyces cerevisiae; assay: α-Glucosidase inhibition assay (spectrophotometric, p-nitrophenyl-α-D-glucopyranoside); type: biochemical; settings: mean ± spread, triplicate
Procedure: α-Glucosidase inhibition assay was performed spectrophotometrically. α-Glucosidase from Saccharomyces cerevisiae (Abcam, Cambridge, UK) was dissolved in phosphate buffer (pH 6.8, 50 mM). Test compounds were dissolved in DMSO. In 96-well microtiter plates, 20 µL of test sample, 20 µL of enzyme (20 mU/mL) and 135 µL of buffer were added and incubated for 15 minutes at 37 °C. After incubation, 25 µL of p-nitrophenyl-α-D-glucopyranoside (2 mM, Abcam) was added and change in absorbance was monitored for 20 min at 400 nm. Test compound was replaced by DMSO (10% final) as control. Deoxynojirimycin hydrochloride (Abcam) was used as a standard inhibitor. The assays were done in triplicate. IC50 values were calculated from non-linear regression curve of percentage inhibition versus log compound concentration.

[2] = molecular target: T1, Rabbit muscle glycogen phosphorylase a (Oryctolagus cuniculus, UniProt P00489); assay: Glycogen phosphorylase enzyme assay (phosphate release, malachite green); type: biochemical; settings: mean of three determinations
T1 construct: purchased Abcam
T1 sequence (P00489 2-843 limits assumed): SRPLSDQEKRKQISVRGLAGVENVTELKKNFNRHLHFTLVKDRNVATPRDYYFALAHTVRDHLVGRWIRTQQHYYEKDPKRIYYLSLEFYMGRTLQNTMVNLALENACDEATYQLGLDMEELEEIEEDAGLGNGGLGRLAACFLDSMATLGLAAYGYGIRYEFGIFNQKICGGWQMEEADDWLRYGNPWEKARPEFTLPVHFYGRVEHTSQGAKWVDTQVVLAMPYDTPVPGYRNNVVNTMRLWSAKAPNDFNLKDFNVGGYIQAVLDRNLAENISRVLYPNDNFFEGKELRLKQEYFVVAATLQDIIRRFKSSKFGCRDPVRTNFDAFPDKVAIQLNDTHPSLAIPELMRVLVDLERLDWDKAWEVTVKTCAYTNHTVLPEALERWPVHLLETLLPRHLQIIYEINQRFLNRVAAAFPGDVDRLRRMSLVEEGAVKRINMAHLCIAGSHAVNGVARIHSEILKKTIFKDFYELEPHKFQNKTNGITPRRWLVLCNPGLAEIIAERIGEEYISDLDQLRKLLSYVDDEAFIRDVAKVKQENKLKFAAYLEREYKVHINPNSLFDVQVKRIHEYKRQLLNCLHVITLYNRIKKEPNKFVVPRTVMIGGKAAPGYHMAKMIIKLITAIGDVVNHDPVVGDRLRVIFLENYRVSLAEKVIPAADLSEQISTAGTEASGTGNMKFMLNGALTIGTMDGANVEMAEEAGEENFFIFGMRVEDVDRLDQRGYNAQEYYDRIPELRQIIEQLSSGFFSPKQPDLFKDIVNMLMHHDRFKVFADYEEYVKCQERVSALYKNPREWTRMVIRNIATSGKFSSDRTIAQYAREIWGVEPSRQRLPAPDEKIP
Procedure: Rabbit muscle glycogen phosphorylase a (from Abcam, 0.475 mg/ mL) activity was measured in the direction of glycogen synthesis by the release of phosphate from glucose-1-phosphate using a 384-well plate at 22 °C in […] of buffer containing 50 mM Hepes (pH 7.2), 100 mM KCl, 2.5 mM EGTA, 2.5 Mm MgCl2, 0.25 Mm glucose-1-phosphate, and 1 mg/mL glycogen with a 30-min incubation time. Phosphate was measured at 620 nm, 5 minutes after the addition of […] of 1 MHCl containing 10 mg/mL ammonium molybdate and 0.38 mg/mL malachite green. Test compounds were added to the assay in […] of 14% DMSO. Compounds were tested against a deoxynojirimycin hydrochloride (Abcam) standard in 11 point concentration response curve in duplicate on two separate occasions. Data were analyzed using GraphPad Prism v.4.03, GraphPad Software, (La Jolla, CA, USA).
A nonlinear regression (curve fit) analysis with a sigmoidal dose response equation (variable slope) was applied to generate IC50 and hill slope values. […] Compounds were screened with maximal concentrations of […]. The assay was carefully monitored for signs of compound insolubility. The results are presented as mean values from three determinations.

[3] = system: Sprague-Dawley (SD) rats with streptozocin-induced diabetes; assay: In vivo antidiabetic screening, blood glucose level in STZ-induced diabetic rats; design: species or system rat; settings: for Blood Glucose Level, Reading 1: 15 h fasting followed by 5-mg meal, before treatment; for Blood Glucose Level, Fasting: after fasting for 15 h, pretreatment; for Blood Glucose Level, Reading 2: second day, after oral treatment 40 mg/100 g body weight followed by 5-mg meal
Procedure: The compound (7b) was tested on Sprague-Dawley (SD) rats for the effect on the blood glucose level, as described in the experimental Section 3.8, and the results are reported in (Table 2) and (Figure 3). Blood glucose levels were measured after fasting for 15 h (fasting reading), followed by the administration of a 5-mg meal (reading 1). Moreover, a second day reading after treatment with normal saline, acarbose, or (7b) compound blood glucose level (reading 2) followed by a 5-mg meal, was measured. […] In addition, the blood glucose level after 15 h fasting followed by a meal of 5 mg (reading 1) was compared to the blood glucose levels under the same conditions, and following the administration of normal saline, acarbose or compound (7b). For the control non-diabetic non-treated group and the diabetic non- treated group, no significant difference between (readings 1 and 2) was shown. For the group of rats treated with acarbose or compound (7b) one hour before a meal, blood glucose levels decreased from 147 ± 2 to 136 ± 3.28 and 120 ± 0.88 mg/dL to 116 ± 0.57, respectively. […] Twenty male Sprague–Dawley (SD) rats were maintained in an air-conditioned room (25 °C) at a constant humidity (55–60%). All rats were provided with a standard rat diet containing 60% carbohydrate (w/w), 2% fat (w/w), 17.5% protein (w/w), 8% fiber (w/w), and water ad libitum. The experiments were performed in accordance with the internationally accepted standard ethical guidelines for laboratory animal use and care, as described in the European Community guidelines. The Institutional Animal Ethics Committee of Al-Azhar University approved the study protocols (approval No: 409/432, 3/2018). Diabetes was induced in 12 Sprague–Dawley (SD) male rats by a single intraperitoneal injection of 40 mg/kg streptozocin (STZ) dissolved in 0.1 M/L citrate buffer at a pH of 4.5. Three rats were injected with normal saline and vehicle only to serve as negative controls. The remaining diabetic rats (nine) were identified by an increase in blood glucose more than 200 ± 10 mg/dL after one week. Blood glucose levels were measured using One Touch Ultra 2 glucometer (Lifescan inc., Wayne, USA) every week for the following two weeks to confirm the diabetic status. Rats were 6–8 weeks of age and the average weight when starting the experiment was 200 ± 20 g. Twelve rats were randomly assigned to four groups. Group 1: non-diabetic non-treated (control). Group 2: Diabetic non-treated. Group 3: Diabetic and administrated acarbose before meals. Group 4: Diabetic and administrated our new compound before a meal. Briefly; the first group was injected with an IP vehicle only. The other three groups were injected with streptozocin (STZ) and developed diabetes. The second group was diabetic and untreated. The third group was diabetic rats treated with acarbose at 40 mg per 100 g body weight 30 min. before meal using oral tube. The fourth group administrated 40 mg/100 g body weight of the test compound (7b). Rats were fasted over 15 h and blood sugar levels were measured (pretreatment). For each rat, 5 mg standard rat diet was supplied to each rat and blood glucose levels were measured to detect increases after 1 hour. Rats were fed again with the same amount after 8 h. Food was removed to allow animals to fast again for 15 h. On the following day, groups 1 and two were not given any treatment, while group 3 rats were given acarbose (positive control) and group 4 were given the test compound (7b). Blood glucose levels were measured in tail vein blood samples taken from fasting rats (time point 0), then designated groups are fed either acarbose or the test compound, suspended in PBS and delivered using an oral tube. After half an hour, the rats were given five mg. Blood samples were taken after 1 hour. Blood glucose was expected to rise after meal and the effect of the drugs was evaluated according to their abilities to control post-meal excursions.

Row | SMILES | IC50 [1] | melting point [°C] | IC50 [2] [nM] | other results
1 | O=C(Nc1ccccc1C(=O)NCc1ccc(Cl)cc1)c1ccccn1 [Compound 3d, N-(2-((4-Chlorobenzyl)carbamoyl)phenyl)picolinamide] | 94.7 nM | 233 to 235 | 177 ± 50 | –
2 | Cc1ccc(CNC(=O)c2ccccc2NC(=O)c2ccccn2)cc1 [Compound 3e, N-(2-((4-Methylbenzyl)carbamoyl)phenyl)picolinamide] | – | 275 to 278 | 262 ± 10 | –
3 | COc1ccc(CNC(=O)c2ccccc2NC(=O)c2ccccn2)cc1 [Compound 3b, N-(2-((4-Methoxybenzyl)carbamoyl)phenyl)picolinamide] | 22.3 nM | 225 to 227 | – | –
4 | O=C(Nc1ccccc1C(=O)Nc1ccc(S(=O)(=O)Nc2ccccn2)cc1)c1ccccn1 [Compound 5b, N-(2-((4-(N-(Pyridin-2-yl)sulfamoyl)phenyl)carbamoyl)phenyl)picolinamide] | 21.2 nM | – | 16.6 | –
5 | OC[C@H]1NC[C@H](O)[C@@H](O)[C@@H]1O [1-Deoxynojirimycin, reference compound] | – | – | 55.6 ± 110 | –
6 | O=C(Nc1ccccc1C(=O)NCc1ccc(F)cc1)c1ccccn1 [Compound 3c, N-(2-((4-Fluorobenzyl)carbamoyl)phenyl)picolinamide] | – | – | 86.4 ± 20 | –
7 | O=C(Nc1ccccc1C(=O)Nc1ccc(S(=O)(=O)Nc2nccs2)cc1)c1ccccn1 [Compound 5c, N-(2-((4-(N-(Thiazol-2-yl)sulfamoyl)phenyl)carbamoyl)phenyl)picolinamide] | 12.5 ± 10 nM | 217 to 219 | – | –
8 | NS(=O)(=O)c1ccc(NC(=O)c2ccccc2NC(=O)c2ccccn2)cc1 [Compound 5a, N-(2-((4-Sulfamoylphenyl)carbamoyl)phenyl)picolinamide] | 47.7 nM | – | – | –
9 | NNC(=O)c1ccccc1NC(=O)c1ccccn1 [Compound 6, N-(2-(Hydrazinecarbonyl)phenyl)picolinamide] | – | 210 to 212 | 582 ± 580 | IC50 ([1]; listed as 7): 416 nM
10 | O=C(Nc1ccccc1C(=O)NCc1ccccc1)c1ccccn1 [Compound 3a, N-(2-(Benzylcarbamoyl)phenyl)picolinamide] | 89.6 nM | – | 150 ± 70 | –
11 | COC(=O)c1ccccc1NC(=O)c1ccccn1 [Compound 1, Methyl 2-(picolinamido)benzoate] | 735 nM and 736 nM | 210 to 212 | 541 ± 60 | –
12 | C[C@H]1O[C@H](O[C@H]2[C@H](O)[C@@H](O)[C@@H](O[C@H]3[C@H](O)[C@@H](O)C(O)O[C@@H]3CO)O[C@@H]2CO)[C@H](O)[C@@H](O)[C@@H]1N[C@H]1C=C(CO)[C@@H](O)[C@H](O)[C@H]1O (stereo partly shown) [Acarbose, reference compound] | – | – | – | Blood Glucose Level, Reading 1 [3]: 147 ± 2.0 mg/dL; Blood Glucose Level, Reading 1 ([3]; listed as acarbose): 147 ± 2 mg/dL; Blood Glucose Level, Fasting [3]: 204 ± 4.5 mg/dL; Blood Glucose Level, Reading 2 [3]: 136 ± 3.28 mg/dL

Continued, in another order:

Row | IC50 [1] | melting point [°C] | IC50 [2] [nM] | SMILES | other results
13 | 78.4 ± 50 nM | 212 to 214 | – | O=C(Nc1ccccc1C(=O)N/N=C/c1ccc(Cl)cc1Cl)c1ccccn1 [Compound 7d, (E)-N-(2-(2-(2,4-Dichlorobenzylidene)hydrazine-1-carbonyl)phenyl)picolinamide] | –
14 | 17.6 nM | 215 to 217 | 13.7 ± 30 | O=C(Nc1ccccc1C(=O)N/N=C/c1ccc(O)cc1O)c1ccccn1 [Compound 7b, (E)-N-(2-(2-(2,4-Dihydroxybenzylidene)hydrazine-1-carbonyl)phenyl)picolinamide] | Effect on blood glucose level compared with reference drug ([3]; 40 mg/100 g body weight oral before meal): succeeded in decreasing the blood glucose level of diabetic rats better than the reference oral antidiabetic drug, acarbose; Blood Glucose Level, Reading 1 [3]: 120 ± 0.88 mg/dL; Blood Glucose Level, Fasting [3]: 207 ± 0.88 mg/dL; Blood Glucose Level, Reading 2 [3]: 116 ± 0.57 mg/dL
15 | 231 ± 570 nM | 225 to 227 | 86.4 | O=C(Nc1ccccc1C(=O)N/N=C/c1ccccn1)c1ccccn1 [Compound 7c, (E)-N-(2-(2-(Pyridin-2-ylmethylene)hydrazine-1-carbonyl)phenyl)picolinamide] | –
16 | – | 205 to 207 | 208 | O=C(Nc1ccccc1C(=O)N/N=C/c1ccccc1)c1ccccn1 [Compound 7a, (E)-N-(2-(2-Benzylidenehydrazine-1-carbonyl)phenyl)picolinamide] | –
